Measurements published in US20040053234A1, “Polynucletides that control delta-6 desaturase genes and methods for identifying compounds for modulating delta-6 desaturase” (priority 2000, published 2004).

How the values were obtained:
fatty acid desaturases = conditions: Kawashima et al., 1996; cited from earlier work
delta 6 desaturase = target: T1, delta 6 desaturase (Rattus norvegicus, UniProt Q9Z122); assay: Inhibition of delta 6 desaturase in rat liver microsomes incubated with alpha-linolenic or linoleic acid; type: biochemical
T1 construct: from tissue; host or cells: rat liver microsomes (female Wistar rats)
Experimental: As proposed by Leikin and Brenner (Leikin A. I. and Brenner R. R., 1989, Biochim. Biophys. Acta. September 25, 1005: 187-191), the following are best conditions for the desaturation assays since the enzymes are saturated with the substrates and the reactions are linear within the incubation time. Reactions were started by adding 2 or 3 mg of microsomal protein to pre-incubated tubes containing 0.20 μCi of the substrate fatty acid at a final concentration of 33.3 μM in 1.5 ml of the homogenization solution, containing NaF (42 mM), niacinamide (0.33 mM), ATP (1.57 mM), NADH (1.01 mM) and coenzyme A (0.09 mM) as described elsewhere (Leikin A. I. and Brenner R. R., 1989, Biochim. Biophys. Acta. September 25,1005: 187-191).The tubes were vortexed vigorously and after 15 min incubation in a shaling water bath (37° C.), the reactions were stopped by the addition of 2 ml of 10% (w/v) KOH in ethanol. Lipids in the incubation mixture were saponified at 80° C. for 45 min under N2. The samples were then left in ice for 5 min before acidification. The fatty acids were extracted with hexane and esterified with BF3/methanol at 90° C. for 30 min (Morrison W. R. and Smith L. M., 1964, J. Lipid Res., 5: 600-608).
Hepatic microsomes were obtained from female Wistar rats by differential centrifigation as described in Example 3.
Incubations were performed as described in Example 3. N-propyl gallate was added to the incubation medium to a final concentration that ranged from 0.02 to 0.32 mM.

[1] = target: T2, rD6D-1 (without V5/6xHis tags) (Rattus norvegicus, UniProt Q9Z122)
Experimental: (§1) Saccharomyces cerevisiae transformed with pYr5003.1 without V5/6×His tags or pTh5002.1 with V5/6×His tags were grown in modified SC-U medium with 2% galactose to induce the expression of the gene that encodes the fatty acid delta-6-desaturase. After 16 h incubation, cells were centrifuged at 2060×g for 5 min at 4° C., washed once with distilled water and centrifuged again. The volume and weight of the cell pellet were measured Cells were suspended (1:2 w/v) in 0.1 M Tris.SO4 (pH 9.4), 10 mM DTT and incubated at 30° C. After 10 min incubation, the cell pellet was obtained by centrifugation, washed once (1:20 w/v) with 1.2 M sorbitol and suspended (1:1 w/v) in 1.2 M sorbitol, 20 mM phosphate buffer (pH 7.4) as described elsewhere (Daum et al., 1982, J. Biol. Chem., 257: 13028-13033). The 15,800× g (1 min) supernatant of Lyticase was added to the cell suspension at a concentration of 2000 U/ml and the suspension incubated at 30° C. with 50 rpm shaking. Conversion to spheroplasts was checked after 40 min incubation by diluting the suspension with distilled water followed by observation under the microscope (Schatz G. and Kovac L., 1974, Methods in Enzymology, 31A: 627-632).
(§2) Spheroplasts were harvested by centrifugation at 2060×g for 5 min at 4° C. and washed once with 1.2 M sorbitol. Spheroplasts were suspended in modified SC-U medium with 1% tergitol, 1.2 M sorbitol and 2% galactose to maintain the induction conditions and to give an OD600 reading of approximately 2.5-3.0. A 10 ml aliquot of the spheroplast suspension was transferred to a 125 ml Erlenmeyer flask and incubated with 200 μL of n-propyl gallate in ethanol (final concentration in the culture ranged between 0.7 and 14.1 mM) at 30° C. in an orbital incubator set at 270 rpm After 30 min incubation 1 μCi of [1-^14C]-alpha-linolenic or [1-^14C]-linoleic acids were added to the cultures to a final concentration of 2 μM and further incubated for 120 min. At this time point, turbidity readings at OD600 were taken, spheroplasts were harvested by centrifugation and washed with Tris buffer (100 mM, pH 8.0) containing 0.1%/o BSA. Total lipids were extracted as described below.
(§3) The radioactivity from aliquots of the supernatant, spheroplasts and whole cells was determined by liquid scintillation counting using a LS6500-Scintillation System (Beckman) prior to the lipid extraction. Total lipids were extracted from cells or spheroplasts with chloroform/methanol (2:1 v/v) according to the method of Folch et al., 1957, J. Biol. Chem., 226: 497-509. The total lipid extracts were methylated using boron trifluoride in methanol at 90° C. for 30 min.
(§4) The desaturase activity was determined by measuring the conversion of radiolabelled linoleic acid to gammna-linolenic acid (18:2n-6 to 18:3n-6) and alpha-linolenic acid to stearidonic acid (18:3n-3 to 18:4n-3). The percent inhibition was calculated as described elsewhere (Kawashima et al., 1996, Biosci. Biotech. Biochem., 60:1672-1676):
(§5) Inhibition % =(activity without the inhibitor−activity with the inhibitor)/activity without the inhibitor

[2] = target: T3, hD6D-1 (with V5/6xHis tags) (Homo sapiens, UniProt O95864); assay: Inhibition of hD6D-1 in whole cells of transformed Saccharomyces cerevisiae; type: cell-based; parameters: expressed in transfected cells; host or cells: Saccharomyces cerevisiae INVSc1 transformed with pTh5002.1 (pYES2/CT); conditions: [1-14C]-alpha-linolenic acid
T3 sequence (O95864 1-444): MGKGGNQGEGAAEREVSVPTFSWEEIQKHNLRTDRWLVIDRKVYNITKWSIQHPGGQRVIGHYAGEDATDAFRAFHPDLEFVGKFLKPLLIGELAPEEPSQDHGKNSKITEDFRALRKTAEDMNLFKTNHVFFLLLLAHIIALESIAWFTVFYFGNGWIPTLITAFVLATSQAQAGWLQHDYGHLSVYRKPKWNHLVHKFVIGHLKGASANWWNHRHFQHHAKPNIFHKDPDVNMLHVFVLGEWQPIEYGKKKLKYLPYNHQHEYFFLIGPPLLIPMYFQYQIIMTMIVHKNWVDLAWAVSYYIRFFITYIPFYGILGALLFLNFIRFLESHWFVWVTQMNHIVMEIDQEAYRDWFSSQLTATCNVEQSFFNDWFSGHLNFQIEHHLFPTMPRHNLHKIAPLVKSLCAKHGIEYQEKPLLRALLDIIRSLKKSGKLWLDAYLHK
Experimental: Transformed Saccharomyces cerevisiae pTh5002.1 with V5/6xHis tags were incubated in a 125 ml Erlenmeyer flask containing 9 ml of modified SC-U medium with 1% tergitol (O.D.6000.4, approximately 3.2×10^6 cells) and 200 μl of 7, 14 or 28 mM n-propyl gallate in ethanol. After 1 h incubation in an orbital incubator at 270 rpm and 30° C., 1 μCi of potassium salts of [1-^14C]-linoleic or [1-^14C]-alpha-linolenic acids (dissolved in modified SC-U medium and 1% tergitol) were added to the cell suspension to a final concentration of 2 μM. After 5 h incubation with the inhibitor, cells reached the log phase and the transgene expression was induced with the addition of 1 ml of galactose to a final concentration of 2%. Yeast were further incubated for 19 h (OD600 range 7.2-9.3) until they were harvested by centrifugation at 5000×g for 10 minutes at 4° C. Cell were washed with Tris buffer (100 mM, pH 8.0) containing 0.1% BSA and total lipids were extracted as described below.
The radioactivity from aliquots of the supernatant, spheroplasts and whole cells was determined by liquid scintillation counting using a LS6500-Scintillation System (Beckman) prior to the lipid extraction. […]
The desaturase activity was determined by measuring the conversion of radiolabelled linoleic acid to gammna-linolenic acid (18:2n-6 to 18:3n-6) and alpha-linolenic acid to stearidonic acid (18:3n-3 to 18:4n-3). […]

delta-6-desaturase = assay: Inhibition of delta-6-desaturase in rat liver microsomes incubated with [1-14C]-dihomogammalinolenic acid; type: biochemical; conditions: for % of inhibition: substrate [1-14C]-dihomogammalinolenic acid
Experimental: Wistar rats under light halothane (15% in mineral oil) anesthesia were sacrificed by exsanguination during periods of high enzyme activity. Livers are immediately rinsed with cold 0.9% NaCl solution, weighed and minced with scissors. All procedures are performed at 4° C. unless specified otherwise. Livers are homogenized in a solution (1:3 w/v) containing 0.25 M sucrose, 62 mM potassium phosphate buffer (pH 7.0), 0.15 M KCl, 1.5 mM N-acetylcysteine, 5 mM MgCl2, and 0.1 mM EDTA using 4 strokes of a Potter-Elvehjem tissue homogenizer. The homogenate is centrifuged at 10,400×g for 20 min to eliminate mitochondria and cellular debris. The supernatant is filtered through a 3-layer cheesecloth and centrifuged at 105,000×g for 60 min. The microsomal pellet is gently resuspended in the same homogenization solution with a small glass/teflon homogenizer and stored at −70° C. The absence of mitochondrial contamination is enzymatically assessed. The protein concentration is measured using bovine serum albumin as the standard.
Reactions are started by adding 2 mg of microsomal protein to pre-incubated tubes containing 0.20 μCi of the substrate fatty acid (DGLA) at a final concentration of 33.3 μM in 1.5 ml of homogenization solution, containing NaF (42 mM), niacinamide (0.33 mM), ATP (1.57 mM), NADH (1.0 mM), coenzyme A (0.09 mM) and a range of concentrations of the enzyme modulators. N-propyl gallate was added to the incubation medium to a final concentration of 0.02-0.32 mM. The tubes are vortexed vigorously and after 15 min incubation in a shaking water bath (37° C.), the reactions are stopped and fatty acids are analyzed as described in herein. Alternatively, fatty acid methyl esters are analyzed by capillary column gas chromatography (GC).

[3] = target: T3, hD6D-1 (with V5/6xHis tags)
Experimental: as §1, §2, §3, §4, §5

[4] = test system: spheroplasts of transformed Saccharomyces cerevisiae; assay: O.D.600 and substrate radioactivity recovered in spheroplasts (cytotoxicity, uptake); type: cell-based
Description: Total lipids were extracted as described below.

[5] = target: T2, rD6D-1 (without V5/6xHis tags); assay: Inhibition of rD6D-1 in spheroplasts of transformed Saccharomyces cerevisiae; conditions: [1-14C]-linoleic acid
Experimental: as §1, §2, §3, §4, §5

T1 sequence (Q9Z122 whole entry): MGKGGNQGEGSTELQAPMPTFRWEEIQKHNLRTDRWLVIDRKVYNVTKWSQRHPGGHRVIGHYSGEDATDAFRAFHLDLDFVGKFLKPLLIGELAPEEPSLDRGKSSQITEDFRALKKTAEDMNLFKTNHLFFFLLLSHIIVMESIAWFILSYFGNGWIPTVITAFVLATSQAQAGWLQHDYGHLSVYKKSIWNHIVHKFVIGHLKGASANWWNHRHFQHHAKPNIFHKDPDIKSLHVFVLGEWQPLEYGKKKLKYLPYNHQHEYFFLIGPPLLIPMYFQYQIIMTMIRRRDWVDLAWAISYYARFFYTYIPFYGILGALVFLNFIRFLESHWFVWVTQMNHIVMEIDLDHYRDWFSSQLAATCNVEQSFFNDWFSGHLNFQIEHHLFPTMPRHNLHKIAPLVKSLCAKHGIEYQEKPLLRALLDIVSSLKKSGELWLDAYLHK
T2 sequence (Q9Z122 whole entry): as above

SMILES: CCCOC(=O)c1cc(O)c(O)c(O)c1 [n-propyl gallate, Propyl ester of 3,4,5-trihydroxybenzoic acid]
- Mode of inhibition (fatty acid desaturases): noncompetitive inhibitor
- % of inhibition 18:2n-6 → 18:3n-6 (delta 6 desaturase; inhibitor 0.02 mM): 18.0%
- % of inhibition 18:3n-3 → 18:4n-3 (delta 6 desaturase; inhibitor 0.02 mM): 28.7%
- % of inhibition 18:2n-6 → 18:3n-6 (delta 6 desaturase; inhibitor 0.04 mM): 32.0%
- % of inhibition 18:3n-3 → 18:4n-3 (delta 6 desaturase; inhibitor 0.04 mM): 42.5%
- % of inhibition 18:2n-6 → 18:3n-6 (delta 6 desaturase; inhibitor 0.08 mM): 64.5%
- % of inhibition 18:3n-3 → 18:4n-3 (delta 6 desaturase; inhibitor 0.08 mM): 54.2%
- % of inhibition 18:2n-6 → 18:3n-6 (delta 6 desaturase; inhibitor 0.16 mM): 82.6%
- % of inhibition 18:3n-3 → 18:4n-3 (delta 6 desaturase; inhibitor 0.16 mM): 71.3%
- % of inhibition 18:2n-6 → 18:3n-6 (delta 6 desaturase; inhibitor 0.32 mM): 98.7%
- % of inhibition 18:3n-3 → 18:4n-3 (delta 6 desaturase; inhibitor 0.32 mM): 79.5%
- inhibition [1]: 100%
- % of inhibition ([2]; inhibitor 7 mM): 36.7%
- % of inhibition ([2]; inhibitor 14 mM): 73.6%
- % of inhibition (delta-6-desaturase; inhibitor 0.02 mM): 62.9%
- % of inhibition (delta-6-desaturase; inhibitor 0.04 mM): 74.9%
- % of inhibition (delta-6-desaturase; inhibitor 0.08 mM): 86.4%
- % of inhibition (delta-6-desaturase; inhibitor 0.16 mM): 88.7%
- % of inhibition (delta-6-desaturase; inhibitor 0.32 mM): 100.0%
- Inhibitor concentration at which a plateau of inhibition was reached (delta-6-desaturase; rat liver microsomes, Table 20): 0.08 to 0.32 mM
- inhibition [3]: 82.3%
- Concentrations that may be toxic for the spheroplasts ([4]; cell number slightly decreased, radioactivity recovered substantially reduced): > 5600 µM
- O.D.600 ([4]; hD6D-1 spheroplasts, inhibitor 0.7 mM): 2.2
- O.D.600 ([4]; hD6D-1 spheroplasts, inhibitor 1.4 mM): 3.4
- O.D.600 ([4]; hD6D-1 spheroplasts, inhibitor 2.8 mM): 3.1
- O.D.600 ([4]; hD6D-1 spheroplasts, inhibitor 5.6 mM): 3.5
- O.D.600 ([4]; hD6D-1 spheroplasts, inhibitor 14.1 mM): 2.5
- Cytotoxicity to spheroplasts ([4]; n-propyl gallate 0.7-5.6 mM, constant O.D.600, similar radioactivity recovered): not cytotoxic
- O.D.600 ([4]; rD6D-1 spheroplasts, inhibitor 0.7 mM): 2.5
- O.D.600 ([4]; rD6D-1 spheroplasts, inhibitor 1.4 mM): 2.6
- O.D.600 ([4]; rD6D-1 spheroplasts, inhibitor 2.8 mM): 2.5
- O.D.600 ([4]; rD6D-1 spheroplasts, inhibitor 5.6 mM): 2.6
- O.D.600 ([4]; rD6D-1 spheroplasts, inhibitor 14.1 mM): 2.3
- % of inhibition ([5]; inhibitor 0.7 mM): 8.9%
- % of inhibition ([5]; inhibitor 1.4 mM): 39.2%
- % of inhibition ([5]; inhibitor 2.8 mM): 77.4%
- % of inhibition ([5]; inhibitor 14.1 mM): 100%
